The nature of data set [1]: Determination of pharmacokinetic parameters after intravenous administration in rats. Format: in vivo, rat. The conditions noted are these: intravenous administration of 0.3 mg/kg; for MRT / half-life: male, Wistar, rat, plasma; for MRT: read-out: mean residence time; for half-life: read-out: terminal half-life (converted). The protocol: B-4. Determination of Pharmacokinetic Parameters after Intravenous and Oral Administration
The pharmacokinetic parameters of the compounds of the formula (I) according to the invention are determined in male CD-1 mice, male Wistar rats and/or female beagles. The administration volume is 5 ml/kg for mice, 5 ml/kg for rats and 0.5 ml/kg for dogs. Intravenous administration is via a formulation of species-specific plasma/DMSO (99/1) in the case of mice and rats and via water/PEG400/ethanol (50/40/10 or 30/60/10) in the case of dogs. For easier removal of blood, a silicone catheter is inserted into the right Vena jugularis externa of the rats before the administration of substance. The surgical intervention takes place one day prior to the experiment with isofluran anaesthesia and administration of an analgetic (atropine/rimadyl (3/1) 0.1 ml s.c.). Substance administration is as i.v. bolus in the case of mice and rats and via a 15-minute infusion in the case of dogs. Removal of blood is after 0.033, 0.083, 0.17, 0.5, 1, 2, 3, 4, 6, 7 and 24 hours in the case of rats, after 0.033, 0.083, 0.17, 0.5, 1, 2, 3, 4, 6, 7, 24, 48 and 72 hours in the case of mice and after 0.083, 0.25, 0.28 0.33, 0.42, 0.75, 1, 2, 3, 4, 6, 7 and 24 hours in the case of dogs. For all species, oral administration of the dissolved substance via gavage is carried out based on a water/PEG400/ethanol formulation (50/40/10). Here, the removal of blood from rats is after 0.083, 0.17, 0.5, 0.75, 1, 2, 3, 4, 6, 7 and 24 hours and from dogs after 0.083, 0.17, 0.5, 0.75, 1, 2, 3, 4, 6, 7, 24, 30 and 48 hours. The blood is removed into heparinized tubes. The blood plasma is then obtained by centrifugation; if required, it can be stored at −20° C. until further processing.
An internal standard (ZK 228859) is added to the samples of the compounds of the formula (I) according to the invention, calibration samples and QCs, and the protein is precipitated using excess acetonitrile. After addition of an ammonium acetate buffer (0.01 M, pH 6.8) and subsequent vortexing, the mixture is centrifuged at 1000 g and the supernatant is examined by LC-MS/MS (API 4000, AB Sciex). Chromatographic separation is carried out on an Agilent 1100-HPLC. The injection volume is 10 μl. The separation column used is a Phenomenex Luna 5μ C8(2) 100 A 50×2 mm, adjusted to a temperature of 40° C. A binary mobile phase gradient at 500 μl/min is used (A: 0.01 M ammonium acetate buffer pH 6.8, B: 0.1% formic acid in acetonitrile): 0 min (90% A), 1 min (90% A), 3 min (15% A), 4 min (15% A), 4.50 min (90% A), 6 min (90% A). The temperature of the Turbo V ion source is 500° C. The following MS instrument parameters are used: curtain gas 15 units, ion spray voltage 4.8 kV, gas 1 45 units, gas 2 35 units, CAD gas 40 units. The substances are quantified by peak heights or areas using extracted ion chromatograms of specific MRM experiments.
The pharmacokinetic parameters such as AUC, Cmax, t1/2 (terminal half-life), MRT (mean residence time) and CL (clearance) are calculated by means of the validated pharmacokinetics calculation program KinEx (Vers. 2.5 and 3) from the plasma concentration-time curves obtained.
As substance quantification takes place in plasma, the blood/plasma distribution of the substance must be determined for appropriate adjustment of the pharmacokinetic parameters. For this, a defined amount of the substance in heparinized whole blood of the corresponding species is incubated for 20 min in the tumbling roller mixer. After centrifugation at 1000 g, the plasma concentration is measured (see above) and the Cblood/Cplasma value is determined by finding the quotient.
Following intravenous administration of 0.3 mg/kg of Example 1, 18, 19 and 27 in rats, the following values were recorded: […]

The test system of another data set is aorta. Briefly: Vessel-relaxing action in vitro (phenylephrine-contracted aorta rings). To be noted: Oryctolagus cuniculus; rabbit aorta rings, phenylephrine contraction; concentration reducing control contraction by 50%. On the procedure: B-1. Vessel-Relaxing Action In Vitro
Rabbits are stunned with a blow on the back of the neck and exsanguinated. The aorta is removed, freed from adhering tissue, separated into rings with a width of 1.5 mm, and placed individually, with preloading, in 5-ml organ baths with carbogen-gassed Krebs-Henseleit solution at 37° C. with the following composition (mM in each case): sodium chloride: 119; potassium chloride: 4.8; calcium chloride dihydrate: 1; magnesium sulphate heptahydrate: 1.4; potassium dihydrogen phosphate: 1.2; sodium hydrogen carbonate: 25; glucose: 10. The contraction force is recorded with Statham UC2 cells, amplified and digitized via an A/D converter (DAS-1802 HC, Keithley Instruments Munich) and recorded in parallel on a continuous-line recorder. To produce contraction, phenylephrine is added to the bath cumulatively in increasing concentration. After several control cycles, the test substance is added in increasing dosage in each subsequent pass and the level of contraction is compared with the level of contraction reached in the immediately preceding pass. This is used for calculating the concentration that is required to reduce the level of the control value by 50% (IC50 value). The standard application volume is 5 μl, and the proportion of DMSO in the bath solution corresponds to 0.1%.

In data set [2] the target is T1, recombinant guanylate cyclase reporter cell line (Rattus norvegicus, UniProt P19686+P20595).
T1 construct: expressed in transfected cells
T1 sequence (P20595 1-619): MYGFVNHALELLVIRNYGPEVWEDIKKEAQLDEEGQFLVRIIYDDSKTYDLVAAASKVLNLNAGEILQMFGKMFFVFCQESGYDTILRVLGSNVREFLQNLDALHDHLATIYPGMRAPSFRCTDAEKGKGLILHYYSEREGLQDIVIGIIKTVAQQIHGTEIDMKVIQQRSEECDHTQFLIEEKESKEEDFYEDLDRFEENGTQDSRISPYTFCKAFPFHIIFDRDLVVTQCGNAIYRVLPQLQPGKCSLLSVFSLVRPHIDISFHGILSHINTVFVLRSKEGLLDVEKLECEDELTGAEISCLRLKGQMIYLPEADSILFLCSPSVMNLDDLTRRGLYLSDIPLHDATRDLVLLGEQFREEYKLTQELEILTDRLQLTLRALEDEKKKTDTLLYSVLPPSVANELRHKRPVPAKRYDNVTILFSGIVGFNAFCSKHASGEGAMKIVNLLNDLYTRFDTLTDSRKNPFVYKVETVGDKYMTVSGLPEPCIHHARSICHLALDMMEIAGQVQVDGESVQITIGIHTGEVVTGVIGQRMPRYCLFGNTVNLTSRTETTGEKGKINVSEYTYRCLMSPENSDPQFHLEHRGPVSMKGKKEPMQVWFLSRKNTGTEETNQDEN
T1 sequence (P19686 1-690): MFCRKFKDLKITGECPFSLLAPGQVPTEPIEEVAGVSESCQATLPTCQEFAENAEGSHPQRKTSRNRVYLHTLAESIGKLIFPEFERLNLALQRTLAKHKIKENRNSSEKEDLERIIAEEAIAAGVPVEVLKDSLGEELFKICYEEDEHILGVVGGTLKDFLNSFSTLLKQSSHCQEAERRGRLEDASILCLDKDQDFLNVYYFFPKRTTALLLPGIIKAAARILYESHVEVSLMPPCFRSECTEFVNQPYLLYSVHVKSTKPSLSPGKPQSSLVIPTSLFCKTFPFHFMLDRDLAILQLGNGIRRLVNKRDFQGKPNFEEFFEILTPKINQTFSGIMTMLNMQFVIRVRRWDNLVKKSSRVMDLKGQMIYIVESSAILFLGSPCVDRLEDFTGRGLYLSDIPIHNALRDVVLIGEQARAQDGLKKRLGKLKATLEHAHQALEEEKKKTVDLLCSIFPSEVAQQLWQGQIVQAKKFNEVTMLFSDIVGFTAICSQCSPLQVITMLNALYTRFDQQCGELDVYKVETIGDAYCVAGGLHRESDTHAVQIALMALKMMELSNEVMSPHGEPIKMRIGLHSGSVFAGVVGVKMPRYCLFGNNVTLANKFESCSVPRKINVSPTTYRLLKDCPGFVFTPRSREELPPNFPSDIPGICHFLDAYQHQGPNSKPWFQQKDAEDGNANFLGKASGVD
Kind of data set: Action on recombinant guanylate cyclase reporter cell line. Format: cell-based. On the procedure:
B-2. Action on Recombinant Guanylate Cyclase Reporter Cell Line
The cellular action of the compounds according to the invention is determined on a recombinant guanylate cyclase reporter cell line, as described in F. Wunder et al., Anal. Biochem. 339, 104-112 (2005).

Each structure is given as a SMILES string.

For the compound `CC1(C)C(=O)Nc2nc(-c3nn(Cc4ccccc4F)c4ncccc34)ncc21` [Example 1, 2-[1-(2-Fluorobenzyl)-1H-pyrazolo[3,4-b]pyridin-3-yl]-5,5-dimethyl-5,7-dihydro-6H-pyrrolo[2,3-d]pyrimidin-6-one], in data set [1], the CLblood was found to be 18.3 mL/min/kg, the MRT was found to be 1.2 h and the half-life is 0.9 h. Further, inhibition in the data set on aorta was half-maximal at 12 nM (IC50). In addition, in data set [2], the “MEC (minimal effective concentration)” value was 0.01 µM.
As to `CC1(O)C(=O)Nc2nc(-c3nn(Cc4ccccc4F)c4ncccc34)ncc21` (centres unmarked) [Example 17, 2-[1-(2-Fluorobenzyl)-1H-pyrazolo[3,4-b]pyridin-3-yl]-5-hydroxy-5-methyl-5,7-dihydro-6H-pyrrolo[2,3-d]pyrimidin-6-one], the IC50 with aorta was 13 nM. For the same compound, the “MEC (minimal effective concentration)” value in data set [2] was 0.1 µM.
Consider `O=C1Nc2nc(-c3nn(Cc4ccccc4F)c4ncccc34)ncc2C1(O)C(F)(F)F` (centres unmarked) [Example 18, 2-[1-(2-Fluorobenzyl)-1H-pyrazolo[3,4-b]pyridin-3-yl]-5-hydroxy-5-(trifluoromethyl)-5,7-dihydro-6H-pyrrolo[2,3-d]pyrimidin-6-one], for which, in data set [1], the CLblood was 7.67 mL/min/kg, the MRT stood at 1.9 h and the half-life is 1.4 h. In the data set on aorta, half-maximal inhibition (IC50) was put at 93 nM. For the same compound, the “MEC (minimal effective concentration)” value in data set [2] turned out to be 0.03 µM.
In the data set on aorta, `CC1(C)C(=O)Nc2nc(-c3nn(Cc4cccc(F)c4F)c4ncc(F)cc34)nnc21` [Example 20, 3-[1-(2,3-Difluorobenzyl)-5-fluoro-1H-pyrazolo[3,4-b]pyridin-3-yl]-7,7-dimethyl-5,7-dihydro-6H-pyrrolo[2,3-e][1,2,4]triazin-6-one] returned an IC50 of 45 nM. Moreover, the “MEC (minimal effective concentration)” value in data set [2] was determined as 0.03 µM.
With `CC1(F)C(=O)Nc2nc(-c3nn(Cc4ccccc4F)c4ncccc34)ncc21` (centres unmarked) [Example 23, 5-Fluoro-2-[1-(2-fluorobenzyl)-1H-pyrazolo[3,4-b]pyridin-3-yl]-5-methyl-5,7-dihydro-6H-pyrrolo[2,3-d]pyrimidin-6-one], in the data set on aorta, the IC50 came out at 15 nM. Also, the “MEC (minimal effective concentration)” value in data set [2] stood at 0.03 µM.
In turn, `CC(C)(C)OC(=O)CC1(O)C(=O)Nc2nc(-c3nn(Cc4ccccc4F)c4ncccc34)ncc21` (centres unmarked) [Example 24, tert-Butyl {2-[1-(2-fluorobenzyl)-1H-pyrazolo[3,4-b]pyridin-3-yl]-5-hydroxy-6-oxo-6,7-dihydro-5H-pyrrolo[2,3-d]pyrimidin-5-yl}acetate] yielded an IC50 with aorta of 269 nM. In addition, in data set [2], the “MEC (minimal effective concentration)” value worked out at 0.3 µM.
In the same order, the values of `COC(=O)NC1C(=O)Nc2nc(-c3nn(Cc4ccccc4F)c4ncccc34)ncc21` (centres unmarked) [Example 26, Methyl {2-[1-(2-fluorobenzyl)-1H-pyrazolo[3,4-b]pyridin-3-yl]-6-oxo-6,7-dihydro-5H-pyrrolo[2,3-d]pyrimidin-5-yl}carbamate] are 840 nM and 0.3 µM.
For the compound `CC1(C)C(=O)Nc2nc(-c3nn(Cc4cccc(F)c4F)c4ncccc34)nnc21` [Example 27, 3-[1-(2,3-Difluorobenzyl)-1H-pyrazolo[3,4-b]pyridin-3-yl]-7,7-dimethyl-5,7-dihydro-6H-pyrrolo[2,3-e][1,2,4]triazin-6-one], in data set [1], the CLblood came to 5.83 mL/min/kg, the MRT was 7.3 h and the half-life was 5.6 h. In the data set with aorta, this compound returned an IC50 of 54 nM. The “MEC (minimal effective concentration)” value in data set [2] worked out at 0.03 µM.
Compound `CC1(C)C(=O)Nc2nc(-c3nn(Cc4ccc(F)cc4F)c4ncccc34)nnc21` [Example 28, 3-[1-(2,4-Difluorobenzyl)-1H-pyrazolo[3,4-b]pyridin-3-yl]-7,7-dimethyl-5,7-dihydro-6H-pyrrolo[2,3-e][1,2,4]triazin-6-one] had an IC50 with aorta of 103 nM. In data set [2], the “MEC (minimal effective concentration)” value came to 0.3 µM.
In the case of `O=C1Nc2nc(-c3nn(Cc4ccccc4F)c4ncc(F)cc34)ncc2C12CC2` [Example 30, 2′-[5-Fluoro-1-(2-fluorobenzyl)-1H-pyrazolo[3,4-b]pyridin-3-yl]spiro[cyclopropane-1,5′-pyrrolo[2,3-d]pyrimidin]-6′(7′H)-one], in the data set on aorta, the half-maximal inhibitory concentration (IC50) amounted to 97 nM. Moreover, the “MEC (minimal effective concentration)” value in data set [2] was 0.03 µM.

Broadly, the half-life is the time needed for the level to fall by half in the phase considered. As usually defined, the IC50 is the concentration at which inhibition is half-maximal. Read a low IC50 as inhibition by little substance.

Source of the values: patent US9216978B2, “Ring-fused pyrimidines and triazines and use thereof for the treatment and/or prophylaxis of cardiovascular diseases” (BAYER INTELLECTUAL PROPERTY GMBH, priority 2010, dated 2015).
